This is an account of results in patent US10526291B2, “Potent dual BRD4-kinase inhibitors as cancer therapeutics” (H. Lee Moffitt Cancer Center and Research Institute, Inc., priority 2014, dated 2020).

One data set concerns HEK293. Kind of data set: HEK293 cell IC50. The data set is classed as cell-based. As to conditions: Homo sapiens.
The target of a further data set is T1, BRD2 (Homo sapiens, UniProt P25440).
T1 construct: purchased
The data set can be described thus: BRD2 IC50 (RB, commercial BRD panel). Format: binding.

In data set [1] the target is T2, BRD4 (Homo sapiens, UniProt O60885). Kind of data set: BRD4 IC50 (RB, commercial BRD panel). Format: binding.
A further data set has as its target T3, BRDT (Homo sapiens, UniProt Q58F21).
T3 construct: purchased
The data set can be described thus: BRDT IC50 (RB, commercial BRD panel). Format: binding.

Another data set addresses T4, JAK2 (Homo sapiens, UniProt O60674).
T4 construct: purchased
The data set can be described thus: JAK2 IC50 (RB, commercial kinase panel). Format: biochemical.

For another data set, the system named is MM.1S cells. The data set can be described thus: MM.1S cell survival, MTT assay. The data set is classed as cell-based. As to conditions: Homo sapiens, MM1.S, 72 h, 72 hours compound exposure.
For the next data set, the target named is T5, JAK3 (Homo sapiens, UniProt P52333).
T5 construct: purchased
T5 sequence (P52333 1-1124): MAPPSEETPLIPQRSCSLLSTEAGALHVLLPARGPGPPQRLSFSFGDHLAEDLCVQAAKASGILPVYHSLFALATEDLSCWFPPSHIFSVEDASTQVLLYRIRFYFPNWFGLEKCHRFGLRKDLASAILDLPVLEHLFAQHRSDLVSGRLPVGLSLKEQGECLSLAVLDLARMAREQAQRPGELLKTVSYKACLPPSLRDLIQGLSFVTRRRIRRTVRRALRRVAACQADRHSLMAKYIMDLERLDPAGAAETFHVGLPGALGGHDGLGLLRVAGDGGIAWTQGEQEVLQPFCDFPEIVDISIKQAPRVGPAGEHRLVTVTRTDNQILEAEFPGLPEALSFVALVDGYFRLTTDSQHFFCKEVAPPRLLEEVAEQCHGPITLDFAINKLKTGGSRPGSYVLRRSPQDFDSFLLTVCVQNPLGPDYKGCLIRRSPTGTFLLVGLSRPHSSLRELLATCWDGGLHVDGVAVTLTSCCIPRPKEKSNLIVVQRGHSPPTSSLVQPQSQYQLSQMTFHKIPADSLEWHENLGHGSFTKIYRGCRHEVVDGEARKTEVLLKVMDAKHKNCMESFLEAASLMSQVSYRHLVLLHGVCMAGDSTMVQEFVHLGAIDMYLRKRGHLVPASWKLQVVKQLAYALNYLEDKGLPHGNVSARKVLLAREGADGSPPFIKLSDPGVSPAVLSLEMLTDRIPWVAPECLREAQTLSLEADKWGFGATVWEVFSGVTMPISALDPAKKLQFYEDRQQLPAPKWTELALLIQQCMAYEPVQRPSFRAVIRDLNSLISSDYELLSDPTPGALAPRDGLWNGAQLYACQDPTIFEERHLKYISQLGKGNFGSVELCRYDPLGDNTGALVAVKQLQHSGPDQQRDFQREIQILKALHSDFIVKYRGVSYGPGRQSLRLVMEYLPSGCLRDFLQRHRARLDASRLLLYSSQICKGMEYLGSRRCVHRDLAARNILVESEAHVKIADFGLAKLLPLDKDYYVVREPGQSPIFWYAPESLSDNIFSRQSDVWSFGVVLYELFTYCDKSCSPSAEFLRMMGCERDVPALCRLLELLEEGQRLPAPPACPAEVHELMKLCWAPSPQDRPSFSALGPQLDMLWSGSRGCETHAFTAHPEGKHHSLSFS
Kind of data set: JAK3 IC50 (RB, commercial kinase panel). The data set is classed as biochemical.

For data set [2], the target named is T2, BRD4. The data set can be described thus: Differential Scanning Fluorimetry (DSF), stability of BRD4 upon ligand binding. As to conditions: for ΔTm at 4 µM: 100 μM protein, 4 μM compound and 2% DMSO; for IC50: estimated. The protocol:
(§1) DSF=Differential Scanning Fluorimetry; provides a measure of the increased stability of BRD4 upon ligand binding The DSF experiment was run at 100 μM protein, 4 μM compound and 2% DMSO.

In the next data set the target is T6, BRD3 (Homo sapiens, UniProt Q15059).
T6 construct: purchased
Kind of data set: BRD3 IC50 (RB, commercial BRD panel). The data set is classed as binding.

The next data set concerns the target T7, JAK1 (Homo sapiens, UniProt P23458).
T7 construct: purchased
Kind of data set: JAK1 IC50 (RB, commercial kinase panel). Format: biochemical.

The next data set addresses T8, FLT3 (Homo sapiens, UniProt P36888).
T8 construct: purchased
T8 sequence (P36888 27-993): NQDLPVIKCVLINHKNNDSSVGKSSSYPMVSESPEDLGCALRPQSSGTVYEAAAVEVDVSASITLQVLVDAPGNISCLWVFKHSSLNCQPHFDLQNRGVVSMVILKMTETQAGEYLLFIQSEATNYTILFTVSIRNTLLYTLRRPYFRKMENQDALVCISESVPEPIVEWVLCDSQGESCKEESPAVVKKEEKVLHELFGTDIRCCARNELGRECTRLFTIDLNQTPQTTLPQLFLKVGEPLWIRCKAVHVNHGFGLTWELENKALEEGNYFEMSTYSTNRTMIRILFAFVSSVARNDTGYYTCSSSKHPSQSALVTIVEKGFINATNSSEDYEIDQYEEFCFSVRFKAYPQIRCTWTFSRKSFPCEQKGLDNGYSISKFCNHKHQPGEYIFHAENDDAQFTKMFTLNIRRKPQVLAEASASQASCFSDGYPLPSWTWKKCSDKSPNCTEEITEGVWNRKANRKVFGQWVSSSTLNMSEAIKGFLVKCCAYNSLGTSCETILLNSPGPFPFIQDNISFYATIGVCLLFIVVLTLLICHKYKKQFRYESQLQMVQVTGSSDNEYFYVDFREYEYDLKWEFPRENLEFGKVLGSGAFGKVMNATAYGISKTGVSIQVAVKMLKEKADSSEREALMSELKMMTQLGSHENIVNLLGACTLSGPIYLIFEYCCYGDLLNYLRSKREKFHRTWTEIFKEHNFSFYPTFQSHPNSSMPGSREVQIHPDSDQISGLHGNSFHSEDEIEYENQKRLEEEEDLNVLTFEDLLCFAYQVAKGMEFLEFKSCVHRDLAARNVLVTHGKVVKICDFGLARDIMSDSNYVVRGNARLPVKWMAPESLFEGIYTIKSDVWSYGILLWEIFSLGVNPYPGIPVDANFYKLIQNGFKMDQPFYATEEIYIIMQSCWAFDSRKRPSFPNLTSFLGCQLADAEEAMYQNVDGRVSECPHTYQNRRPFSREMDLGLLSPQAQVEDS
The data set can be described thus: FLT3 IC50 (RB, commercial kinase panel). Format: biochemical.

The next data set relates to SAOS-2. The data set can be described thus: SAOS-2 cell IC50. Format: cell-based. The note with it: Homo sapiens.
The next data set has as its system UKE-1. The data set can be described thus: UKE-1 cell IC50. The data set is classed as cell-based. As to conditions: UKE1.
The target in a further data set is T9, BRD4-2 (Homo sapiens, UniProt O60885).
T9 construct: BRD4-2; purchased
The data set can be described thus: BRD4-2 IC50. Format: binding.

Another data set addresses T10, BRD4-1 (Homo sapiens, UniProt O60885).
T10 construct: BRD4-1; purchased
Kind of data set: BRD4-1 IC50. Format: binding.

For another data set, the target named is T11, BRDT-1 (Homo sapiens, UniProt Q58F21).
T11 construct: BRDT-1; purchased
The data set can be described thus: BRDT-1 IC50. Format: binding.

A further data set deals with MV4-11 AML cells. The data set can be described thus: MV-4-11 cell IC50 (antiproliferative activity). Format: cell-based. As to conditions: Homo sapiens. The protocol:
Cellular activity of promising compounds is assessed using MM.1S and MV4-11 AML cells using c-Myc levels as biomarker (6-12 hr treatment) and antiproliferative activity (48-72 hr treatment) as described (Ciceri et al., Dual kinase-bromodomain inhibitors for rationally designed polypharmacology. Nat Chem Biol 2014).

The next data set relates to NCI-H2052. Kind of data set: NCI-H2052 cell IC50. The data set is classed as cell-based. As to conditions: Homo sapiens.
Data set [3] in a line: Precipitation in DSF buffer. The data set is classed as physicochemical. The protocol: as §1
The nature of a further data set: Solubility in PBS buffer. The data set is classed as physicochemical.

≈ marks a conversion by molar mass, not a printed value. Where “and” joins values, the source holds several entries; their conditions need not be identical. Equal values may be shown once. Read-outs that look alike come from different tables or passages of the source. A value given as a limit tells only on which side of the number the result lay.

T6 sequence (Q15059 whole entry): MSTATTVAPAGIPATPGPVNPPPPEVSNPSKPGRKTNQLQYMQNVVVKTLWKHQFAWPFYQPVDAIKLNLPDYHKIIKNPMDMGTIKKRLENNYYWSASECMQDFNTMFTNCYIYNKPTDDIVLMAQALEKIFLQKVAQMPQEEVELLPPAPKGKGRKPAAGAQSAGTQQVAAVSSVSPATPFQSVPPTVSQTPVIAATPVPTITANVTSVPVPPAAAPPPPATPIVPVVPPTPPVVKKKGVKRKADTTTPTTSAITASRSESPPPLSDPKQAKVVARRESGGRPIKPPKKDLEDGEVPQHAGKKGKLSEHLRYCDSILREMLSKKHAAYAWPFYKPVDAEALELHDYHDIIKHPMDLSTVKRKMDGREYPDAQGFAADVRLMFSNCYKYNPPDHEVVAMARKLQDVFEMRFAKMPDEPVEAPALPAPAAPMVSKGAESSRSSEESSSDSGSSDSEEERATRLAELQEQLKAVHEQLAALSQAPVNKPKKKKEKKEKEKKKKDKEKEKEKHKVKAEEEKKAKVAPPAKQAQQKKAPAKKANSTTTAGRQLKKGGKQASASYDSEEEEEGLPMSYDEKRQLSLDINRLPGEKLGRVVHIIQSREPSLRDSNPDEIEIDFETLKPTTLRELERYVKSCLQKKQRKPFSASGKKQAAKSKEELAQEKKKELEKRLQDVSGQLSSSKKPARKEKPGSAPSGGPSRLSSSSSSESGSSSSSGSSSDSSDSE
T4 sequence (O60674 whole entry): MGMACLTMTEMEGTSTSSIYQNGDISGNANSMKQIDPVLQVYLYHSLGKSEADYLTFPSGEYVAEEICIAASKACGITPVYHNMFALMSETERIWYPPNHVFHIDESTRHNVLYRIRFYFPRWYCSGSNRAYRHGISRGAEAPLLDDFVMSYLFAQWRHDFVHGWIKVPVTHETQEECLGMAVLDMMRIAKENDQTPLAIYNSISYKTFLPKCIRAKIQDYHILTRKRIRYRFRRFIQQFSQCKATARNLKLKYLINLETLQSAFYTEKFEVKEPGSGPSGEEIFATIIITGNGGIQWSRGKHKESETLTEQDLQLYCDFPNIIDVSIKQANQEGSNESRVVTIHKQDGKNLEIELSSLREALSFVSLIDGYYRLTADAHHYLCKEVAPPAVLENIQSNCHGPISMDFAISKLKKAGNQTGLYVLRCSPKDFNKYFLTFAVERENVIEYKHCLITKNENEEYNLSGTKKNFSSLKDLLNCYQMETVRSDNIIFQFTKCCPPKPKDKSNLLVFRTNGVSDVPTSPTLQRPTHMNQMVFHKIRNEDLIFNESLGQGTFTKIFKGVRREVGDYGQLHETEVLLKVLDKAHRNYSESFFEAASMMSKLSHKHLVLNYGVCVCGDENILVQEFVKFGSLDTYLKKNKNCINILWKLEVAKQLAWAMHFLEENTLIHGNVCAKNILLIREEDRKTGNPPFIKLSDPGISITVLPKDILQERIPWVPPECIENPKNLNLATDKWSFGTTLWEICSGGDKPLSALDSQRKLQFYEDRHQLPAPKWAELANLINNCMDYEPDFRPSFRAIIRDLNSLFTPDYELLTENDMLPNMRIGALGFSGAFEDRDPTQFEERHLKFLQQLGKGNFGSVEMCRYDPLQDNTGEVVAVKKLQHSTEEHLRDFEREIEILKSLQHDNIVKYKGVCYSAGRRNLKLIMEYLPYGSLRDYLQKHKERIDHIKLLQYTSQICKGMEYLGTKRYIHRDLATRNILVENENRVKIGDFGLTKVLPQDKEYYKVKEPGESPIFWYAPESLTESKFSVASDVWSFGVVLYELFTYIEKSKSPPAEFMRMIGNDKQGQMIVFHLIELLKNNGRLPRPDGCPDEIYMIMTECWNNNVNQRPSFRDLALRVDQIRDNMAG
T1 sequence (P25440 whole entry): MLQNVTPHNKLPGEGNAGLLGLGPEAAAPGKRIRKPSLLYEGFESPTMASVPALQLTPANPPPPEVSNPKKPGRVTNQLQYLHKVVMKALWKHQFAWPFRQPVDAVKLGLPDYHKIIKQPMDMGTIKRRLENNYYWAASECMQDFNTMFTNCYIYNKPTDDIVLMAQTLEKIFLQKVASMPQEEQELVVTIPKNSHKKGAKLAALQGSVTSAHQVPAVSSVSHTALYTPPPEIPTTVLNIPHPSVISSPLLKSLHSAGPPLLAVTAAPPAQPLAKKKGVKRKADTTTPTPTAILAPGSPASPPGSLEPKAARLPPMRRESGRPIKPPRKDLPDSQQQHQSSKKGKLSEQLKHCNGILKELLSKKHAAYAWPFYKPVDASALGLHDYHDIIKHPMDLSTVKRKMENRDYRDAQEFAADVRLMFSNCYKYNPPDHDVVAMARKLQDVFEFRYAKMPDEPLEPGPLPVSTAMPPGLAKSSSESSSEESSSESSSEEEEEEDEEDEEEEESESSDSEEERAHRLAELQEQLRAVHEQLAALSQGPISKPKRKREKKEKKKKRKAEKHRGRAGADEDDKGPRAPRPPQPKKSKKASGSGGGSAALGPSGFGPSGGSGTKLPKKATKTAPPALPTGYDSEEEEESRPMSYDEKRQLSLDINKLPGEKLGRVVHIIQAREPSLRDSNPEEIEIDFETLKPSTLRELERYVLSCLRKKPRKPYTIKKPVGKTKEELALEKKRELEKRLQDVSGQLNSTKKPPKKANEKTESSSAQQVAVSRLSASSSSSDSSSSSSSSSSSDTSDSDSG
T7 sequence (P23458 whole entry): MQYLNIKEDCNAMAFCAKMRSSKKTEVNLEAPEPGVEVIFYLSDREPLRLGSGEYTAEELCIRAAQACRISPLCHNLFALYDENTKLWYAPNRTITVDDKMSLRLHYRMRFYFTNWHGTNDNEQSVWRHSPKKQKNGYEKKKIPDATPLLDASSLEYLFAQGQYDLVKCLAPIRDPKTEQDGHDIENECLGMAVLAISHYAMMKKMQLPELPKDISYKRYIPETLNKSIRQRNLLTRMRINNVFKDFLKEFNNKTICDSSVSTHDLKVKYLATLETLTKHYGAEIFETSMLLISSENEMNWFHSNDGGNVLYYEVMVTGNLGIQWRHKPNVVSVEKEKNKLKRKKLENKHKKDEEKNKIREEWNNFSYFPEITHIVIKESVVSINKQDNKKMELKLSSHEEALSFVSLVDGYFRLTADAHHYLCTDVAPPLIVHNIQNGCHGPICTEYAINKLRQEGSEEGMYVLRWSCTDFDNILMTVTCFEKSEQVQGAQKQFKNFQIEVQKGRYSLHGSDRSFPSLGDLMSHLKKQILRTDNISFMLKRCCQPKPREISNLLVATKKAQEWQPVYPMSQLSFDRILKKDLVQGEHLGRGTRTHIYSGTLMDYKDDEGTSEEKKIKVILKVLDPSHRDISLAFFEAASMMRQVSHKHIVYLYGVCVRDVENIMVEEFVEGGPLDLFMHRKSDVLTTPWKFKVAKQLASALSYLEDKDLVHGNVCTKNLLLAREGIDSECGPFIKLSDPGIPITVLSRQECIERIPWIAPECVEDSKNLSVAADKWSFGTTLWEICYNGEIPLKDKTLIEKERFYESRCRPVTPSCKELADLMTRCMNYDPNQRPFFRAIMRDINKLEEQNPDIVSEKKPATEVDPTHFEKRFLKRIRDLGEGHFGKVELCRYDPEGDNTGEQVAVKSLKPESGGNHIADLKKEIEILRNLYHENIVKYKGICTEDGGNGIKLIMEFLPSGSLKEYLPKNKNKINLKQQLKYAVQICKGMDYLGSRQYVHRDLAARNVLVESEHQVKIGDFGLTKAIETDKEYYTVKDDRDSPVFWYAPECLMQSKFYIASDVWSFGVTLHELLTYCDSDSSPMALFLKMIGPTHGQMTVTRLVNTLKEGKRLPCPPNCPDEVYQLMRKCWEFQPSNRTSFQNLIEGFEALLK

As to `COc1cc(Nc2nc(Nc3ccc(N4CCN(C)CC4)cc3)ncc2C)ccc1Cl`, the IC50 was determined as 380 nM in the data set on HEK293; 2800 nM against BRD2; 617 nM at BRD4 [1] (read-out: BRD4 IC50); 617 nM on BRD4 [1] (read-out: BRD4 IC50 (RB)); 1400 nM against BRDT; 0.69 nM against JAK2. The IC50 is 420 nM with MM.1S cells; 9.06 nM against JAK3; 290 nM on BRD4 [2]; 1140 nM against BRD3; 1.83 nM against JAK1. The ΔTm at 4 µM on BRD4 [2] amounted to 5.6 ± 0.082 °C.

Take `Cc1cnc(Nc2ccc(N3CCN(C)CC3)cc2)nc1Nc1cccc(NS(=O)(=O)C(C)(C)C)c1`: the IC50 in the data set on HEK293 worked out at 1200 nM; on BRD2, 625 nM; on BRD4 [1] (read-out: BRD4 IC50) it was 10.2 nM; against BRDT it was 29.1 nM; against FLT3 it was 0.917 nM; in the data set on SAOS-2, 184 nM. The IC50 is 400 nM in the data set on MM.1S cells; 91.4 nM at JAK3; 25 nM on BRD4 [2]; 12.5 nM at BRD3; 260 nM in the data set with UKE-1; 4.58 nM on JAK1. At BRD4 [2], the thermal shift (ΔTm) at 4 µM came out at 8.54 ± 0.088 °C.

Take `Cc1cnc(Nc2ccc(N3CCN(C)CC3)c(F)c2)nc1Nc1cccc(NS(=O)(=O)C(C)(C)C)c1`: the IC50 against BRD4-2 worked out at 22 nM; against BRD4-1 it was 24.3 nM; against BRDT-1, 41.3 nM; against FLT3, 1.1 nM; in the data set with SAOS-2, 133 nM; on JAK2, 1.14 nM. For the same compound, the 50% inhibitory concentration (IC50) was 160 nM in the data set with MM.1S cells; 26.8 nM with MV4-11 AML cells; 14 nM and 3.9 nM at BRD4 [2]; 1400 nM in the data set with NCI-H2052; 200 nM in the data set with UKE-1. At BRD4 [2], the ΔTm at 4 µM is 9.5 ± 0.14 °C.

`Cc1cnc(Nc2ccc(N3CCN(C)CC3)c(F)c2)nc1Nc1ccc(Cl)c(NS(=O)(=O)C(C)(C)C)c1`: the 50% inhibitory concentration (IC50) against BRD4-2 amounted to 17.5 nM; at BRD4-1 it was 11.2 nM; against BRDT-1, 19 nM; on FLT3, 10.7 nM; in the data set with SAOS-2, 320 nM; with MM.1S cells, 59 nM. The IC50 is 53.2 nM in the data set with MV4-11 AML cells; 4.8 nM and 1.3 nM at BRD4 [2]; 2500 nM in the data set with NCI-H2052; 294 nM in the data set with UKE-1. In addition, the ΔTm at 4 µM on BRD4 [2] turned out to be 11 ± 0.04 °C.

On to `Cc1cnc(Nc2ccc(C(=O)NC3CCN(C)CC3)c(F)c2)nc1Nc1ccc(Cl)c(NS(=O)(=O)C(C)(C)C)c1`, for which the IC50 at BRD4-1 was 10 nM; against BRDT-1, 23 nM; with MV4-11 AML cells, 38 nM; on BRD4 [2], 1.3 nM; in the data set on NCI-H2052 it was over 10000 nM; with UKE-1 it was 220 nM. Besides, on BRD4 [2], the ΔTm at 4 µM came to 12.5 ± 0.165 °C.

`CN1CCN(c2ccc(Nc3ncc(F)c(Nc4ccc(Cl)c(NS(=O)(=O)C(C)(C)C)c4)n3)cc2F)CC1`: in [3], the “Precipitation in DSF buffer” value was “Precipitation observed in DSF buffer”. Besides, in the data set with MM.1S cells, the IC50 was 160 nM. For the same compound, at BRD4 [2], the ΔTm at 4 µM turned out to be 0.57 ± 0.124 °C and the IC50 is 16800 nM.

Regarding `CN1CCN(c2ccc(Nc3ncc(Cl)c(Nc4ccc(Cl)c(NS(=O)(=O)C(C)(C)C)c4)n3)cc2F)CC1`, the “Precipitation in DSF buffer” value in data set [3] was “Precipitation observed in DSF buffer”. In the data set with MM.1S cells, the IC50 was determined as 110 nM. Further, at BRD4 [2], the ΔTm at 4 µM came to 5.22 ± 0.065 °C and the half-maximal inhibitory concentration (IC50) is 835 nM.

Regarding `Cc1cnc(Nc2ccc(N3CCN(C)CC3)c(C(F)(F)F)c2)nc1Nc1ccc(Cl)c(NS(=O)(=O)C(C)(C)C)c1`, the “Precipitation in DSF buffer” value in data set [3] is “Precipitation interferes with the assay”. Also, on BRD4 [2], the ΔTm at 4 µM turned out to be 2.46 ± 0.111 °C and the half-maximal inhibitory concentration (IC50) is 4950 nM.

Regarding `Cc1cnc(Nc2ccc(N3CCN(C)CC3)cc2)nc1Nc1ccc(Cl)c(NS(=O)(=O)C(C)(C)C)c1` [SG3-014B2.MSA], the Solubility result in the data set “Solubility in PBS buffer” (PBS buffer (15% HPCD)) was “Solubility > 14.4 mg mg in 1 mL”; in “Solubility in PBS buffer” (PBS buffer (~9.3% DMSO)), “DMSO) = 0.416 mg mg in 1 mL”; in “Solubility in PBS buffer” (aqueous with cosolvent or surfactant or cyclodextrin, PBS buffer (~9.3% DMSO), read-out: Solubility), 650 µM (≈ 354 µg/mL).

The term IC50 denotes the concentration at which inhibition is half-maximal. As a reminder, the ΔTm is the shift of the melting midpoint relative to a reference. A word on the Solubility: it is the dissolved amount per volume that the medium holds.
